The text below walks through data of paper PMC4834588 (British Journal of Clinical Pharmacology, 2016).

Like-named read-outs stand apart in the source and are kept apart here. Marks after values point to notes of the source that are not given here. Numbered stars: 1 amine (or outer) side, 2 acyl side, 3 side chain; on linkers, the order of the positions; unused ones are H or OH. Bridge positions count the residues as written; N and C are the ends. Square brackets hold non-standard residues; d marks the D form. Peptide text beside a SMILES is read from it. I, II: the chains in the order shown. Actinocin(9to1) = Cc1c2oc3c(C)ccc(C(=O)[*:1])c3nc-2c(C(=O)[*:2])c(N)c1=O; NMeV = CN[C@H](C(=O)O)C(C)C; Sar = CNCC(=O)O

As a reminder, the chromatographic logP is lipophilicity estimated from chromatographic retention. Read a low chromatographic logP as a more hydrophilic compound.

On the set-up of data set [1]: method as in http://www.drugbank.ca/drugs/DB00970. As to conditions: PBPK compound file input; ref http://www.drugbank.ca/drugs/DB00970; cited from earlier work.
Details of data set [2]: method as in PMID 15143082. Conditions: cited from earlier work.
Data set [3] is described as follows: PBPK modelling and simulation (Simcyp version 14 release 1). Conditions: PBPK compound file input; determined from chemical structure. Also noted: species or system human. How it is done:
Modelling and simulation were performed using Simcyp version 14 release 1 (Simcyp Ltd, a Certara company, Sheffield, UK). The compound file for Act D was compiled using data generated in the methods described above and with additional inputs from web databases and literature sources as shown in Table 2. The Simcyp software provides a framework for assessing the PK of a drug by defining certain characteristics within a compound file. Using this compound file, pharmacokinetic data can then be simulated in individuals of a virtual population of interest, allowing for the impact of inter‐individual differences to be assessed 17, 18.
For the simulation of clinical trial data, information was taken from previous work by Hill et al., who studied 117 patients administered Act D intravenously 8. The population was split into three age categories: 1–<6 (n = 67), 6–<10 (n = 11) and 10–20 years (n = 39). These age bins were further subdivided based on the dose of Act D received (Table 1). […]
The Simcyp simulations output the mean and the 5th and 95th percentile for the concentration−time profile as well as the calculated mean, median and geometric mean of the simulated population. […] In addition, the mean fold‐prediction of AUC against observed data was determined; a two‐fold under‐ or over‐prediction was considered a reasonable prediction and within 1.5‐fold a good prediction. […]

For data set [4] the following is noted: cited from earlier work.
The conditions of data set [5]: cited from earlier work. This is another data set of the same source.
For another data set, the target named is ABCB1 (MDR1) (Homo sapiens, UniProt P08183). Conditions: basal to apical, 0.1-100 μM Act D, 1 h, MDCKII-MDR1 minus MDCKII-WT.
Sequence of ABCB1 (MDR1) (P08183 whole entry): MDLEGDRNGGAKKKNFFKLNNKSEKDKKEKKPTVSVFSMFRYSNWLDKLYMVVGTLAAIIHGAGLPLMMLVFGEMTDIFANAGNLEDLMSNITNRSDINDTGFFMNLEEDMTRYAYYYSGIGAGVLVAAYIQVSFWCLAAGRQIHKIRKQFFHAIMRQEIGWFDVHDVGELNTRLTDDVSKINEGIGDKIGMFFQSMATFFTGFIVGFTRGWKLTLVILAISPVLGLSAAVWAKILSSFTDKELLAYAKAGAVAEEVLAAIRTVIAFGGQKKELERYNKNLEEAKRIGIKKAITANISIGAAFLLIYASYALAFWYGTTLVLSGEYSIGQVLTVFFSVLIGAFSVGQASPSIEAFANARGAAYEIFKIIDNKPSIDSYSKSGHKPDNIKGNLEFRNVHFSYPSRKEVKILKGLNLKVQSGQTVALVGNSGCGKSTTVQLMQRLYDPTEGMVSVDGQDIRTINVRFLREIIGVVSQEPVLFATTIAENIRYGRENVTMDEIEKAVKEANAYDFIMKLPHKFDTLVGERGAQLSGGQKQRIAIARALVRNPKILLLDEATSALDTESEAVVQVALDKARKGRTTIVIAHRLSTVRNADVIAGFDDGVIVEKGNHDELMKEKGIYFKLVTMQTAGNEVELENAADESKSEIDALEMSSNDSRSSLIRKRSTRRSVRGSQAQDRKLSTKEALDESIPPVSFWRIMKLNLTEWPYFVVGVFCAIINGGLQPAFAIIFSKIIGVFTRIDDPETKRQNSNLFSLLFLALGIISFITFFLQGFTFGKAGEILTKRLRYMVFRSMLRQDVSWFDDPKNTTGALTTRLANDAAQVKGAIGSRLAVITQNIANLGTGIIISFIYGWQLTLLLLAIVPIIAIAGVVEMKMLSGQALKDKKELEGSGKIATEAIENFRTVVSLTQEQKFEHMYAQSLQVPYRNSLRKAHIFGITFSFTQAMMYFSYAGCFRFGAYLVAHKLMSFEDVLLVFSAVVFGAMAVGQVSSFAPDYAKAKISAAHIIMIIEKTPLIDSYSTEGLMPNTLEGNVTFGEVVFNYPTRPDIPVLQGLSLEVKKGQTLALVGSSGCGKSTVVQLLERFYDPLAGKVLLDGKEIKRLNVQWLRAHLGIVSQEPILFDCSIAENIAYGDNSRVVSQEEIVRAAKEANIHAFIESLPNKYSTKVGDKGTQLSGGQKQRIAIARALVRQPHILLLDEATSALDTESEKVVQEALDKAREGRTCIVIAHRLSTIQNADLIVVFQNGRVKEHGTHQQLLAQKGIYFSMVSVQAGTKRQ
The next data set in a line: physchem. The text has this: The method for the generation of Log P values by high performance liquid chromatography (HPLC) was adapted from that described by Zhao et al. 22. Briefly, Log P correlates with the retention time of a compound by a solid phase C18 column. […] By using compounds with known Log P values, a standard curve can be determined and the Log P of a compound of interest obtained by interpolation. A Waters HPLC system, linked to an Agilent fluorescence detector, was used along with a Luna 5 μ C18 50 × 2.0 mm HPLC column preceded by a guard column (Phenomenex, Macclesfield, UK). […] The sample holder for the HPLC was set at 25 °C in order to prevent freezing of the DMSO during the run. The mobile phase consisted of deionized water and acetonitrile with a constant gradient of 40–60%, respectively.
Prior to each run the column was equilibrated to the running conditions for 10 minutes, with the flow rate set to 0.5 ml min^−1. A 20‐μl aliquot of each sample was injected into the column and its retention time measured relative to that of the sodium nitrate peak. Peaks were analysed using Empower software (Waters, Wilmslow, UK).

Data set [6] can be described thus: Blood:plasma partitioning in whole blood from a healthy donor. The format is in vitro ADME. As to conditions: human. How it is done:
All experiments were performed in triplicate. An aliquot of 180 μl whole blood from a healthy donor was added to 20 μL of each Act D solution (final concentrations 0.4, 2 and 10 μg ml^−1) in Eppendorf tubes, followed by gentle rotation for 1 min before transfer to an incubator (Infors HT Multitron Standard, Infors AG, Basel) at 37 °C for 1 h and 40 μl of plasma was transferred to a new Eppendorf and mixed with 40 μl of fresh blood.
For the blood samples, 40 μl of blood was transferred to a new Eppendorf and mixed with 40 μl blank plasma. All samples were then mixed with 160 μl of the extraction solution and frozen at −80 °C for 1 h. Samples were then centrifuged at 2000 g and 4 °C for 1 h and 100 μl of supernatant from each sample was transferred to HPLC vials and stored at −20 °C overnight. LC–MS analysis was performed as described above for the analysis of transporter kinetic samples. The blood‐to‐plasma ratio was calculated from the following equation (where Kb/p is the whole blood‐to‐plasma partition coefficient, Ke/p is the red blood cell‐to‐plasma partition and H is the haematocrit): (1) Blood‐to‐plasmaKb/p=Ke/p×H+1−H

Experimental for ABCB1 (MDR1): Polarized Madin‐Darby canine kidney (MDCKII) cell line wild‐type and cells transfected with ABCB1 (MDR1) were obtained from Dr. A.H. Schinkel (Amsterdam, the Netherlands).
For drug transport experiments, 12‐mm Corning Transwell polycarbonate membrane cell culture inserts with 0.4‐μm pores were used (Sigma Aldrich, UK). Cells (passage 8–12) were seeded at 1.4 × 10^4 cells ml^−1 in growth medium and grown on filter for 5 days before the experiment was performed, with medium being changed every 24 hours. […] Growth medium was aspirated from both the apical and basal compartments, and the cells were washed twice with pre‐warmed phosphate‐buffered saline adjusted to pH 7.4. […] Lucifer yellow (60 μM) was added as a paracellular control to test for the formation of a fully confluent monolayer. A limit of 2% Lucifer yellow movement was set as the cutoff with the results for any wells exceeding that threshold being rejected.
The rate of efflux (μM min^−1/10^6 cells) due to MDR1 was determined by subtracting the rate of flux seen across the MDCKII‐WT cells from the flux across the MDCKII‐MDR1 cells.

On to `Cc1c2oc3c(C)ccc(C(=O)N[C@@H]4C(=O)N[C@H](C(C)C)C(=O)N5CCC[C@H]5C(=O)N(C)CC(=O)N(C)[C@@H](C(C)C)C(=O)O[C@@H]4C)c3nc-2c(C(=O)N[C@@H]2C(=O)N[C@H](C(C)C)C(=O)N3CCC[C@H]3C(=O)N(C)CC(=O)N(C)[C@@H](C(C)C)C(=O)O[C@@H]2C)c(N)c1=O` [Act D, Actinomycin D] (I: T[dV]P[Sar][NMeV] / II: T[dV]P[Sar][NMeV]; ester I:1-I:C, II:1-II:C; linker I:N-II:N via Actinocin(9to1)), for which the Fraction unbound in data set [1] is reported as 0.95. In data set [2] (patients over three years of age), the “Likelihood of developing SOS” value was 4%. The “Chance of developing SOS” value in data set [2] (patients under three years of age) is 15%. Besides, the Compound type entry in data set [3] is recorded as “Neutral”. The “Mean observed AUC ± SD (AUC0-26h)” value is 82 ± 18 ng·h/mL in data set [4] (age 1–<6 years, dose 0.60 mg m^−2 IV); 63 ± 8 ng·h/mL in data set [4] (age 1–<6 years, dose 0.76 mg m^−2 IV); 71 ± 33 ng·h/mL in data set [4] (age 1–<6 years, dose 1.01 mg m^−2 IV); 82 ± 16 ng·h/mL in data set [4] (age 1–<6 years, dose 1.12 mg m^−2 IV); 111 ± 16 ng·h/mL in data set [4] (age 1–<6 years, dose 1.48 mg m^−2 IV); 128 ± 51 ng·h/mL in data set [4] (age 1–<6 years, dose 1.55 mg m^−2 IV). Also, the “Mean observed AUC ± SD (AUC0-26h)” value in data set [4] (age 6–<10 years, dose 0.77 mg m^−2 IV) is 80 ± 28 ng·h/mL; in data set [4] (age 6–<10 years, dose 1.50 mg m^−2 IV), 130 ± 12 ng·h/mL; in data set [4] (age 10–20 years, dose 0.74 mg m^−2 IV) it was 45 ± 8 ng·h/mL; in data set [4] (age 10–20 years, dose 1.04 mg m^−2 IV), 50 ± 12 ng·h/mL; in data set [4] (age 10–20 years, dose 1.48 mg m^−2 IV), 120 ± 44 ng·h/mL. Moreover, in data set [4] (observed in patients (abstract)), the “Mean AUC0-26h observed” value was 93 ng·h/mL. Further, the “CL Renal” value in data set [5] (PBPK input, CV of 60% used, ref Tattersall et al. 5) was 1.8 (l h^−1) ^*. Moreover, the “Administered dose eliminated in the urine and faeces” value in data set [5] (after nine days) was “approximately 35%”. Further, on ABCB1 (MDR1), the “Maximum rate of flux (J max)” value stood at 1142 μM min^−1/10^6 cells. On ABCB1 (MDR1), the “Michaelis–Menten constant (K m)” value came out at 20 µM. The “Experimental Log P” value in “physchem” was found to be 4.77. The chromatographic logP in “physchem” is 4.47. Moreover, the blood plasma ratio at 1 h is 0.62 in data set [6] (37 °C, 1 h, 95% confidence interval 0.03, read-out: Mean blood-to-plasma ratio) and 0.59 to 0.65 in data set [6] (whole blood spiked with 0.2 to 10 μg ml^−1, read-out: Blood-to-plasma ratios (range observed)).

`C[C@@H]1C[C@H]2[C@@H]3CCC4=CC(=O)C=C[C@]4(C)[C@@]3(F)[C@@H](O)C[C@]2(C)[C@@]1(O)C(=O)CO` [Dexamethasone] displayed a chromatographic logP in the data set “physchem” (reversed-phase C18 HPLC column (Luna 5 µ C18 50 × 2.0 mm)) of 1.8.
